Experimental data as given in the NIST ThermoML archive (doi:10.1021/je200121f).

Tests used:
[1] = xn = mol fraction of the nth substance listed; details: for surface tension liquid-gas: Ring tensiometer; for viscosity / speed of sound / mass density: 101 kPa, Liquid; for viscosity: Capillary tube (Ostwald / Ubbelohde) method; for speed of sound: Sing-around technique in a fixed-path interferometer; for mass density: Vibrating tube method
[2] = refractive index (Na D-line) (dimensionless); xn = mol fraction of the nth substance listed; details: 101 kPa, Liquid, Standard Abbe refractometry

C[C@H](O)CN [(2S)-1-amino-2-propanol] + CN1CCCC1=O
Details | mass density, [1] [kg/m3] | refractive index, [2] | speed of sound, [1] [m/s] | surface tension liquid-gas, [1] [mN/m] | viscosity, [1] [mPa·s]
293.15 K, x2 = 0 | 960.8 | 1.448 | 1560.8 | 37.6 | 31.67
293.15 K, x2 = 0.1034 | 968.2 | 1.4503 | 1553.5 | 38.1 | 18.96
293.15 K, x2 = 0.2008 | 975.3 | 1.4523 | 1549.1 | 38.5 | 12.72
293.15 K, x2 = 0.3001 | 982.8 | 1.4545 | 1547.5 | 39 | 8.746
293.15 K, x2 = 0.4002 | 989.5 | 1.4567 | 1546 | 39.5 | 7.694
293.15 K, x2 = 0.4978 | 996.5 | 1.4585 | 1546.2 | 40 | 6.542
293.15 K, x2 = 0.5943 | 1003.3 | 1.4607 | 1547.4 | 40.7 | 5.578
293.15 K, x2 = 0.7 | 1010.9 | 1.4632 | 1550.9 | 41.2 | 4.249
293.15 K, x2 = 0.7993 | 1018.1 | 1.4655 | 1554.8 | 41.5 | 3.533
293.15 K, x2 = 0.8913 | 1025 | 1.4675 | 1559.4 | 42.1 | 3.098
303.15 K, x2 = 0 | 952.8 | 1.4442 | 1528.3 | 36.9 | 17.71
303.15 K, x2 = 0.1034 | 960 | 1.4464 | 1519.6 | 37.3 | 11.49
303.15 K, x2 = 0.2008 | 966.9 | 1.4484 | 1514.7 | 37.8 | 8.051
303.15 K, x2 = 0.3001 | 974.2 | 1.4505 | 1511.8 | 38.3 | 5.78
303.15 K, x2 = 0.4002 | 980.8 | 1.4527 | 1510 | 38.8 | 5.21
303.15 K, x2 = 0.4978 | 987.7 | 1.4547 | 1509.4 | 39.2 | 4.723
303.15 K, x2 = 0.5943 | 994.5 | 1.4567 | 1510.3 | 39.5 | 4.271
303.15 K, x2 = 0.7 | 1002 | 1.4591 | 1512.8 | 40.1 | 3.395
303.15 K, x2 = 0.7993 | 1009.2 | 1.4614 | 1516.8 | 40.7 | 2.909
303.15 K, x2 = 0.8913 | 1016.1 | 1.4635 | 1520.6 | 41 | 2.576
313.15 K, x2 = 0 | 944.7 | 1.4401 | 1495.7 | 36.3 | 10.65
313.15 K, x2 = 0.1034 | 951.7 | 1.4423 | 1486 | 36.8 | 7.301
313.15 K, x2 = 0.2008 | 958.4 | 1.4445 | 1480.5 | 37.3 | 5.308
313.15 K, x2 = 0.3001 | 965.6 | 1.4464 | 1476.6 | 37.7 | 4.045
313.15 K, x2 = 0.4002 | 972.1 | 1.4488 | 1474.8 | 38.1 | 3.725
313.15 K, x2 = 0.4978 | 978.8 | 1.4506 | 1472.8 | 38.7 | 3.448
313.15 K, x2 = 0.5943 | 985.6 | 1.4528 | 1473.5 | 39 | 3.375
313.15 K, x2 = 0.7 | 993.1 | 1.4548 | 1475.4 | 39.5 | 2.775
313.15 K, x2 = 0.7993 | 1000.3 | 1.4572 | 1479.1 | 40.2 | 2.458
313.15 K, x2 = 0.8913 | 1007.2 | 1.4594 | 1482.6 | 40.4 | 2.168
323.15 K, x2 = 0 | 936.5 | 1.436 | 1462.9 | 35.9 | 6.961
323.15 K, x2 = 0.1034 | 943.2 | 1.4382 | 1452.1 | 36.2 | 4.793
323.15 K, x2 = 0.2008 | 949.8 | 1.4401 | 1446 | 36.6 | 3.499
323.15 K, x2 = 0.3001 | 956.9 | 1.4421 | 1441.6 | 37.1 | 2.939
323.15 K, x2 = 0.4002 | 963.3 | 1.4442 | 1440.5 | 37.6 | 2.649
323.15 K, x2 = 0.4978 | 969.9 | 1.4464 | 1436.8 | 38 | 2.438
323.15 K, x2 = 0.5943 | 976.7 | 1.4482 | 1436.8 | 38.4 | 2.731
323.15 K, x2 = 0.7 | 984.2 | 1.4506 | 1438.4 | 38.8 | 2.317
323.15 K, x2 = 0.7993 | 991.4 | 1.4529 | 1441.7 | 39.2 | 2.073
323.15 K, x2 = 0.8913 | 998.2 | 1.4552 | 1445.1 | 39.5 | 1.861

CC(O)CNCC(C)O (stereo not given) [N-(2-hydroxypropyl)-2-hydroxy-1-propanamine] + CN1CCCC1=O
Details | mass density, [1] [kg/m3] | refractive index, [2] | speed of sound, [1] [m/s] | surface tension liquid-gas, [1] [mN/m] | viscosity, [1] [mPa·s]
293.15 K, x2 = 0.7804 | 1021.9 | 1.4675 | 1535.6 | 39.7 | 4.857
293.15 K, x2 = 0.8882 | 1026.8 | 1.4682 | 1548.8 | 41.3 | 2.943
303.15 K, x2 = 0.4695 | 1006 | 1.4608 | 1483.8 | 37.1 | 20.25
303.15 K, x2 = 0.5721 | 1007.3 | 1.4616 | 1486.6 | 37.6 | 10.57
303.15 K, x2 = 0.6754 | 1010.8 | 1.4623 | 1494.7 | 38.3 | 6.229
303.15 K, x2 = 0.7804 | 1013.4 | 1.4635 | 1499.4 | 39 | 3.694
303.15 K, x2 = 0.8882 | 1018.2 | 1.4648 | 1511.9 | 40 | 2.371
313.15 K, x2 = 0.2764 | 993.1 | 1.4558 | 1443.5 | 36 | 38.27
313.15 K, x2 = 0.3733 | 994.5 | 1.4563 | 1445 | 36.2 | 21.14
313.15 K, x2 = 0.4695 | 997.8 | 1.4567 | 1450.8 | 36.7 | 11.24
313.15 K, x2 = 0.5721 | 998.9 | 1.4576 | 1453.3 | 37.2 | 7.051
313.15 K, x2 = 0.6754 | 1002.3 | 1.4582 | 1460.3 | 37.9 | 4.495
313.15 K, x2 = 0.7804 | 1004.8 | 1.4594 | 1463.7 | 38.5 | 2.89
313.15 K, x2 = 0.8882 | 1009.4 | 1.4607 | 1474.9 | 39.5 | 1.943
323.15 K, x2 = 0 | 984.1 | 1.4512 | 1420.3 | 34.5 | 125.73
323.15 K, x2 = 0.1049 | 984 | 1.451 | 1414.2 | 34.9 | 61.14
323.15 K, x2 = 0.1898 | 984.4 | 1.4511 | 1411.8 | 35.1 | 35.41
323.15 K, x2 = 0.2764 | 985.1 | 1.452 | 1412.2 | 35.1 | 20.93
323.15 K, x2 = 0.3733 | 986.4 | 1.4524 | 1413 | 35.3 | 12.67
323.15 K, x2 = 0.4695 | 988.2 | 1.4528 | 1415.4 | 36 | 7.412
323.15 K, x2 = 0.5721 | 990.6 | 1.4535 | 1419.6 | 36.5 | 5.022
323.15 K, x2 = 0.6754 | 993.5 | 1.4541 | 1424.3 | 37.1 | 3.42
323.15 K, x2 = 0.7804 | 996.8 | 1.4553 | 1428.6 | 37.7 | 2.33
323.15 K, x2 = 0.8882 | 1000.7 | 1.4565 | 1438.7 | 38.7 | 1.631
